Where a SMILES comes first, the peptide text is derived from it. Bridges are numbered along the chain shown (N, C = ends).
Assays:
KV2.1 channel (rKV2.1) = assay: Whole-cell patch clamp selectivity, KV2.1; format: cell-based, rat; conditions: KV2.1, 10 µM, n = 5
Procedure: (§1) The cDNA of hKV1.1, hKV1.3, rKV1.4, hKV1.5, rKV2.1, hKV3.1–3.4, mKV4.1, rKV4.2, and rKV4.3 were subcloned in the eukaryotic expression vector pCDNA3.1 or pCMV-blank. Channel mutants were made by a site-directed mutation method. Briefly, a pair of oppositely directed primers with 15 bp overlap at their 5′ ends and the designed mutation site were used to amplify the parental channel plasmid, then the PCR mix was treated with DpnI to remove the template. 10 μL digestion mix was directly used to transform 100 μL DH5α chemical competent cells. The correct mutation made by this procedure was finally confirmed by DNA sequencing. […] 4–6 h after transfection, cells were seeded onto poly-lysine (PLL) coated coverslips, and 24–36 h later, transfected cells were ready for patch-clamp analysis. […]
(§2) Whole-cell patch clamp recording was performed in an electrophysiology platform equipped with MultiClamp 700B amplifier and Axon Digidata 1550 AD/DA convertor (Axon Instruments, Irvine, CA, United States). […] The whole cell conductance (G) at each depolarizing voltage (V) was determined using the equation: G = I/(V−Vrev), where I and Vrev represents the current amplitude and the reversal potential, respectively. In the present study, Vrev for K^+ current is determined to be −85.61 mV using the Nernst equation. […] Gating currents of KV4.1–4.3 channels were measured as previously reported ([Tilley et al., 2019]). […]

KV1.5 channel (hKV1.5) = assay: Whole-cell patch clamp selectivity, KV1.5; format: cell-based, human; conditions: KV1.5, 10 µM, n = 5
Procedure: as §1, §2

[1] = system: KV4.1 channel gating currents; assay: Gating current recording, KV4.1; format: cell-based, mouse; conditions: KV4.1, n = 5–6
Procedure: as §1, §2

KV4.1/K283D mutant = assay: Whole-cell patch clamp, KV4.1/K283D in CHO-K1 cells; format: cell-based, mouse
Procedure: (§3) The cDNA of hKV1.1, hKV1.3, rKV1.4, hKV1.5, rKV2.1, hKV3.1–3.4, mKV4.1, rKV4.2, and rKV4.3 were subcloned in the eukaryotic expression vector pCDNA3.1 or pCMV-blank. Channel mutants were made by a site-directed mutation method. Briefly, a pair of oppositely directed primers with 15 bp overlap at their 5′ ends and the designed mutation site were used to amplify the parental channel plasmid, then the PCR mix was treated with DpnI to remove the template. 10 μL digestion mix was directly used to transform 100 μL DH5α chemical competent cells. The correct mutation made by this procedure was finally confirmed by DNA sequencing. CHO-K1 cells (ATCC® CCL-61™) were grown in DMEM-F12 mixed medium (1:1) supplemented with 10% FBS and maintained in standard conditions (saturated humidity, 37°C, 5% CO2). Channel plasmid was co-transfected with pEGFP-N1 (encodes the green fluoresence protein) into CHO-K1 cells using lipofectamine 2000 following the manufacturer’s instructions. 4–6 h after transfection, cells were seeded onto poly-lysine (PLL) coated coverslips, and 24–36 h later, transfected cells were ready for patch-clamp analysis. It should be note that KV4.2 and its mutants were also co-expressed with hKChIP1 to promote their functional expressions.
(§4) Whole-cell patch clamp recording was performed in an electrophysiology platform equipped with MultiClamp 700B amplifier and Axon Digidata 1550 AD/DA convertor (Axon Instruments, Irvine, CA, United States). Data were acquired using the pClamp software (Axon Instruments, Irvine, CA, United States). All experiments were performed at room temperature. The bath solution contains (in mM): 140 NaCl, 5 KCl, 1 MgCl2, 2 CaCl2, 10 glucose, and 10 HEPES (pH = 7.3). The pipette solution contains (in mM): 140 KCl, 2.5 MgCl2, 11 EGTA, and 10 HEPES (pH = 7.3). Series resistance was kept below 10 MΩ and compensated to 80%. The concentration–response curves were fitted by a Hill logistic equation to estimate the potency (IC50) of the toxin. The whole cell conductance (G) at each depolarizing voltage (V) was determined using the equation: G = I/(V−Vrev), where I and Vrev represents the current amplitude and the reversal potential, respectively. In the present study, Vrev for K^+ current is determined to be −85.61 mV using the Nernst equation. G-V curve was obtained by plotting the normalized G as a function of V and fitted by the Boltzmann equation: y = 1/{1 + exp [(Va−V)/K]}, in which Va, V, and K represents half-maximum activation voltage, test voltage and slope factor, respectively. The steady-state fast inactivation of KV4 channels was measured using a classical two-pulses protocol: cell was held at −120 mV, and a train of conditional voltages (−120–40 mV, in 10 mV increment, 1,000 ms) were applied to induce channel inactivation, followed by a +60 mV test pulse (300 ms) to assess the proportion of non-inactivated channels; the sweep interval was set to 10 s. Currents at the test pulse (I) were normalized to the maximum value (Imax) and plotted as a function of the conditional voltage (V), the curve was fitted by the Boltzmann equation: I/Imax = A + (1−A)/{1 + exp [(V−Vh)/K]}, where Vh is the half-maximum inactivation voltage, A represents the minimum channel availability, and K is the slope factor. Gating currents of KV4.1–4.3 channels were measured as previously reported ([Tilley et al., 2019]). Briefly, the ionic pore currents were abolished by replacing K^+ with NMDG^+ in the pipette solution, and 10 µM Cs^+ was present in the bath solution to occupy the selectivity filter of KV channels to prevent decay of the gating currents during recording.
(§5) Data were presented as MEAN ± SEM, n represents the number of separate experimental cells. Data were analyzed using the software Clampfit 10.5 (Axon Instruments, Irvine, CA, United States), Graphpad Prism 5.01 (GraphPad Software, La Jolla, CA, United States) and Excel 2010 (Microsoft Corporation, Redmond, WA, United States). […]

KV1.3 channel (hKV1.3) = assay: Whole-cell patch clamp selectivity, KV1.3; format: cell-based, human; conditions: KV1.3, 10 µM, n = 5
Procedure: as §1, §2

KV4.3/T277P mutant = assay: Whole-cell patch clamp, KV4.3/T277P in CHO-K1 cells; format: cell-based, rat
Procedure: as §3, §4, §5

KV4.1/P282T mutant = assay: Whole-cell patch clamp, KV4.1/P282T in CHO-K1 cells; format: cell-based, mouse
Procedure: as §3, §4, §5

[2] = 10 μM κ-LhTx-1, G-V, mean ± SEM, n = 5
[3] = 10 μM κ-LhTx-1, two-pulse protocol, mean ± SEM, n = 5
[4] = Va shift by 10 μM κ-LhTx-1 vs control, mean ± SEM
[5] = Vh shift by 10 μM κ-LhTx-1 vs control, mean ± SEM
[6] = 10 μM κ-LhTx-1, G-V, mean ± SEM, n = 6
[7] = 10 μM κ-LhTx-1, two-pulse protocol, mean ± SEM, n = 6

## CC[C@H](C)[C@@H]1NC(=O)[C@H](CCC(N)=O)NC(=O)[C@@H]2CSSC[C@@H]3NC(=O)[C@H](CC(C)C)NC(=O)[C@H](CC(N)=O)NC(=O)[C@H](CCSC)NC(=O)[C@H](Cc4c[nH]c5ccccc45)NC(=O)[C@H](CO)NC(=O)[C@H](C)NC(=O)[C@@H](NC(=O)[C@H](CCC(=O)O)NC(=O)[C@H](CCC(N)=O)NC(=O)[C@H](C)NC(=O)[C@H](CC(=O)O)NC(=O)[C@@H](N)CCC(=O)O)CSSC[C@H](NC(=O)[C@H](CSSC[C@@H](C(=O)N[C@@H](CCCCN)C(=O)N[C@@H](Cc4ccc(O)cc4)C(=O)N[C@@H](CCCCN)C(=O)N[C@@H](CC(C)C)C(N)=O)NC(=O)[C@H](Cc4c[nH]c5ccccc45)NC1=O)NC(=O)[C@H](CCCCN)NC(=O)[C@H](CCCCN)NC(=O)[C@H](CCC(=O)O)NC(=O)CNC3=O)C(=O)N[C@@H](CCC(=O)O)C(=O)NCC(=O)N[C@@H](Cc1ccc(O)cc1)C(=O)N[C@@H](C(C)C)C(=O)N2 [κ-LhTx-1] (H-EDAQECASWMNLCGEKKCCEGYVCQIWCKYKL-NH2; disulfide 6-19, 13-24, 18-28 (inferred); N-terminus and C-terminus assumed)
KV2.1 channel (rKV2.1)
  effect on currents: did not remarkably affect the currents
KV1.5 channel (hKV1.5)
  effect on currents: did not remarkably affect the currents
[1]
  gating current inhibition: inhibited the gating currents
KV4.1/K283D mutant; 10 μM
  ∆Va and inhi%(min) vs wild-type KV4.1: unchanged ∆Va and inhi%(min)
KV4.1/K283D mutant; [2]
  Va (steady-state activation): 91.34 ± 3.47 mV
  k, slope factor (steady-state activation): 17.49 ± 1.57 mV
KV4.1/K283D mutant; [3]
  Vh (steady-state inactivation): -36.39 ± 3.03 mV
  k, slope factor (steady-state inactivation): 19.23 ± 1.48 mV
KV4.1/K283D mutant; +30 mV, n = 5
  potency vs wild-type KV4.1: only slightly reduced κ-LhTx-1 potency
KV4.1/K283D mutant; [4]
  ∆Va (steady-state activation): 103.10 ± 4.22 mV
KV4.1/K283D mutant; [5]
  ∆Vh (steady-state inactivation): 24.74 ± 3.63 mV
KV1.3 channel (hKV1.3)
  effect on currents: did not remarkably affect the currents
KV4.3/T277P mutant; [6]
  Va (steady-state activation): 49.17 ± 0.88 mV
  k, slope factor (steady-state activation): 22.21 ± 1.64 mV
KV4.3/T277P mutant; [7]
  Vh (steady-state inactivation): -35.46 ± 1.68 mV
  k, slope factor (steady-state inactivation): 8.50 ± 0.42 mV
KV4.3/T277P mutant; 10 μM, +100 mV
  inhi%(min) vs wild-type KV4.3: significantly elevated inhi%(min) value
KV4.3/T277P mutant; [4]
  ∆Va (steady-state activation): 40.47 ± 2.79 mV
KV4.3/T277P mutant; [5]
  ∆Vh (steady-state inactivation): 11.63 ± 2.17 mV
KV4.1/P282T mutant; [6]
  Va (steady-state activation): 52.55 ± 1.38 mV
  k, slope factor (steady-state activation): 18.09 ± 0.43 mV
KV4.1/P282T mutant; [7]
  Vh (steady-state inactivation): -29.12 ± 1.84 mV
  k, slope factor (steady-state inactivation): 10.73 ± 0.41 mV
KV4.1/P282T mutant; 10 μM, close to values of KV4.2/KV4.3
  ∆Va and inhi%(min) vs wild-type KV4.1: significantly reduced compared with those for KV4.1
KV4.1/P282T mutant; [4]
  ∆Va (steady-state activation): 52.58 ± 1.86 mV
KV4.1/P282T mutant; [5]
  ∆Vh (steady-state inactivation): 26.75 ± 2.85 mV

Source: article PMC8222713, “Variation of Two S3b Residues in KV4.1–4.3 Channels Underlies Their Different Modulations by Spider Toxin κ-LhTx-1” (Frontiers in Pharmacology, 2021)
